Where a name gives a salt, the structure may show the parent alone. Read-outs that look alike come from different tables or passages of the source.

The source of these data is US4126616A, “N-propylnorapomorphine diesters” (Hinshaw; William B., priority 1976, dated 1978).

The experiment deals with caudate lesioned mouse. The experiment in a line: caudate lesioned mouse test (anti-parkinson activity). Conditions: for responders at 416 µmol/kg / responders at 26 µmol/kg / responders at 132 µmol/kg / responders at 5.2 µmol/kg / responders at 52 µmol/kg / responders at 6.5 µmol/kg / responders at 130 µmol/kg / responders at 260 µmol/kg: Mus musculus; for responders at 416 µmol/kg: dose 0.416 m. mole/kg; for responders at 26 µmol/kg: dose 0.026 m. mole/kg; for responders at 132 µmol/kg: dose 0.132 m. mole/kg; for Molar Potency Ratio Claimed/Ref. Ester: claimed N-propyl ester vs corresponding N-methyl reference ester; for ED50: caudate lesioned mouse; for responders at 5.2 µmol/kg: dose 0.0052 m. mole/kg; for responders at 52 µmol/kg: dose 0.052 m. mole/kg. In kind it is in vivo. On the procedure: An index of anti-parkinson activity was determined using the caudate lesioned mouse test described by Lotti, Life Sci., 10, 781-789 (1971). The mice having unilateral lesions of the caudate nucleus prepared according to the method of Lotti supra were observed immediately after the surgical procedure for strong postural asymmetries directed to the same side as the lesion. When this asymmetry was not observed, the mice were discarded. Operated mice were allowed at least 14 days to recover prior to drug testing. The lesioned mice were tested with apomorphine using 1.7 mg./kg. of base administered intraperitoneally in a 1% suspension in gum tragacanth. […] Only those mice which twisted or circled toward the lesioned side in all three test periods after the apomorphine injection were retained for further drug testing. The test drugs were all administered in 1% gum tragacanth suspension in a volume of 0.1 ml./10 g. of body weight. Doses were expressed in mg./kg. of free base.
Results of tests in the caudate lesioned mouse test described above which were obtained on the compounds of the invention are given in the table below identified, in each case, by the example numbers above where their preparations are described. Corresponding data for reference apomorphine diesters described in German patent application No. 2,154,162 are given in a side-by-side relationship for a number of the species. The reference compounds, designated Ref. 1, Ref. 1B, Ref. 1C, Ref. 1D, Ref. 1E, Ref. 1F, Ref. 2 and Ref. 2A correspond, respectively, to the compounds of the invention identified by Examples 1, 1B, 1C, 1D, 1E, 1F, 2 and 2A and differ from the latter only in having a methyl group on the apomorphine nitrogen from instead of an n-propyl group as present in the instant compounds.

The mark [1] stands for this setting: 0.5 h, 1/2 h post-drug, read-out: No. Mice Affected/No. Mice Tested, 1/2 h (converted).
[2] abbreviates: 1 h post-drug, read-out: No. Mice Affected/No. Mice Tested, 1 h (converted).
Where [3] appears, read: 4 h post-drug, read-out: No. Mice Affected/No. Mice Tested, 4 h (converted).
[4] abbreviates: 6 h post-drug, read-out: No. Mice Affected/No. Mice Tested, 6 h (converted).
Where [5] appears, read: 24 h post-drug, read-out: No. Mice Affected/No. Mice Tested, 24 h.
[6] abbreviates: total, read-out: No. Mice Affected/No. Mice Tested, Total (converted).
Setting [7] is: 2 h post-drug, read-out: No. Mice Affected/No. Mice Tested, 2 h (converted).
The mark [8] stands for this setting: 0.5 h, read-out: No. Mice Affected/No. Mice Tested, 1/2 h.
Setting [9] is: 1 h, read-out: No. Mice Affected/No. Mice Tested, 1 h.
Setting [10] is: 2 h, read-out: No. Mice Affected/No. Mice Tested, 2 h.
Setting [11] is: 4 h, read-out: No. Mice Affected/No. Mice Tested, 4 h.
The mark [12] stands for this setting: 6 h, read-out: No. Mice Affected/No. Mice Tested, 6 h.
The mark [13] stands for this setting: read-out: No. Mice Affected/No. Mice Tested, Total.

In the case of `CN1CCc2cccc3c2C1Cc1ccc(OC(=O)c2ccc(Cl)cc2)c(OC(=O)c2ccc(Cl)cc2)c1-3` (stereo not drawn) [Ref. 1F, reference compound], the responders at 416 µmol/kg is 0% under setting [1]; 0% under setting [2]; 0% under setting [3]; 0% under setting [4]; 0% under setting [5]; 0% under setting [6].
Consider `CCCCC(=O)Oc1ccc2c(c1OC(=O)CCCC)-c1cccc3c1C(C2)N(CCC)CC3` (stereo not drawn) [Ex. 2A, N-propylnorapomorphine dipentanoate hydrochloride], for which the “Molar Potency Ratio Claimed/Ref. Ester” value was ≥ 3. Under setting [1], the responders at 26 µmol/kg is 0% and the responders at 132 µmol/kg is 50%. In addition, under setting [2], the responders at 26 µmol/kg is 0% and the responders at 132 µmol/kg is 75%. In addition, under setting [7], the responders at 26 µmol/kg was 0% and the responders at 132 µmol/kg is 75%. Under setting [3], the responders at 26 µmol/kg was 0% and the responders at 132 µmol/kg was 75%. Also, under setting [4], the responders at 26 µmol/kg was 0% and the responders at 132 µmol/kg was 75%. Besides, the responders at 26 µmol/kg under setting [5] is 0%. Also, under setting [6], the responders at 26 µmol/kg is 0% and the responders at 132 µmol/kg was 75%. Further, under “24 h post-drug, read-out: No. Mice Affected/No. Mice Tested, 24 h (converted)”, the responders at 132 µmol/kg was 75%.
Regarding `CCCN1CCc2cccc3c2C1Cc1ccc(OC(=O)c2cc(OC)c(OC)c(OC)c2)c(OC(=O)c2cc(OC)c(OC)c(OC)c2)c1-3` (stereo not drawn) [Ex. 1L, N-Propylnorapomorphine bis-3,4,5-trimethoxybenzoate hydrochloride], the ED50 (read-out: ED50) is 15 µmol/kg. Besides, the responders at 5.2 µmol/kg (0.5 h, 1/2 h post-drug, read-out: No. Mice Affected/No. Mice Tested, 1/2 h) is 0%; the responders at 5.2 µmol/kg (1 h post-drug, read-out: No. Mice Affected/No. Mice Tested, 1 h) came to 0%; the responders at 5.2 µmol/kg (2 h post-drug, read-out: No. Mice Affected/No. Mice Tested, 2 h) worked out at 0%; the responders at 5.2 µmol/kg (4 h post-drug, read-out: No. Mice Affected/No. Mice Tested, 4 h) was 0%; the responders at 5.2 µmol/kg (6 h post-drug, read-out: No. Mice Affected/No. Mice Tested, 6 h) worked out at 0%; the responders at 5.2 µmol/kg under setting [5] was found to be 0%. For the same compound, under “total, read-out: No. Mice Affected/No. Mice Tested, Total”, the responders at 5.2 µmol/kg was found to be 0%. For the same compound, the responders at 26 µmol/kg runs as follows: under setting [1], 75%; under setting [2], 75%; under setting [7], 100%; under setting [3], 100%; under setting [4], 100%; under setting [5], 0%. The responders at 26 µmol/kg under setting [6] was 100%.
In the case of `CCCN1CCc2cccc3c2C1Cc1ccc(OC(=O)C(C)C)c(OC(=O)C(C)C)c1-3` (stereo not drawn) [Ex. 1B, N-Propylnorapomorphine diisobutyrate], the “Molar Potency Ratio Claimed/Ref. Ester” value is reported as ≥ 8. Also, under setting [1], the responders at 26 µmol/kg was 0% and the responders at 52 µmol/kg is 33.3%. Under setting [2], the responders at 26 µmol/kg was 25% and the responders at 52 µmol/kg was 33.3%. Moreover, under setting [3], the responders at 26 µmol/kg was 50% and the responders at 52 µmol/kg was 33.3%. For the same compound, under setting [4], the responders at 26 µmol/kg was 50% and the responders at 52 µmol/kg is 0%. For the same compound, under setting [5], the responders at 26 µmol/kg worked out at 0% and the responders at 52 µmol/kg was determined as 0%. For the same compound, under setting [6], the responders at 26 µmol/kg was 50% and the responders at 52 µmol/kg is 33.3%.
As to `CCCN1CCc2cccc3c2C1Cc1ccc(OC(=O)CC)c(OC(=O)CC)c1-3` (stereo not drawn) [Ex. 1 (HCl), N-propylnorapomorphine dipropionate], the ED50 is recorded as 0.0094 m. mole/kg and the “Molar Potency Ratio Claimed/Ref. Ester” value was 10. Besides, under setting [8], the responders at 6.5 µmol/kg was 25%, the responders at 130 µmol/kg was 75% and the responders at 260 µmol/kg was 100%. In addition, under setting [9], the responders at 6.5 µmol/kg is 25%, the responders at 130 µmol/kg is 50% and the responders at 260 µmol/kg is 100%. For the same compound, under setting [10], the responders at 6.5 µmol/kg came out at 0%, the responders at 130 µmol/kg worked out at 0% and the responders at 260 µmol/kg was 100%. Moreover, under setting [11], the responders at 6.5 µmol/kg turned out to be 0%, the responders at 130 µmol/kg was 0% and the responders at 260 µmol/kg is 100%. For the same compound, under setting [12], the responders at 6.5 µmol/kg came to 0%, the responders at 130 µmol/kg was found to be 0% and the responders at 260 µmol/kg is 100%. Under setting [13], the responders at 6.5 µmol/kg is 25%, the responders at 130 µmol/kg was 75% and the responders at 260 µmol/kg was 100%.
